The values below are quoted from earlier work in US6423697B1, “Intraoral topical anti-inflammatory treatment for relief of migraine, tension-type headache, post-traumatic headache, facial pain, and cervical-muscle spasm” (priority 1999, dated 2002).

The conditions of series [1]: oral medication.

As for `CC(C)Cc1ccc(C(C)C(=O)O)cc1` (centres unmarked) [Ibuprofen, 2-(p-Isobutylphenyl) propionic acid], the effectiveness for headache entry in series [1] is reported as “mildly effective”. In addition, the “time to peak plasma levels” value (oral administration) is 1 to 2 h.
In the case of `COc1ccc2cc([C@H](C)C(=O)O)ccc2c1` [Naproxen, 6-methoxy methyl-2-naphtalene acetic acid], the effectiveness for headache entry in series [1] is reported as “mildly effective”.
As for “2-(3benzoxyphenyl)-propionic acid [Ketoprofen]”, the “time to peak plasma levels” value (oral administration) was 0.5 to 2 h.
As to `CC(=O)Oc1ccccc1C(=O)O` [Aspirin, salicylic acetate], in series [1], the effectiveness for headache entry is given as “mildly effective”. For the same compound, the plasma half-life (in vivo) was 4.7 to 9 h. Besides, for the setting “oral administration”, the “time peak plasma levels are maintained” value was 4 to 6 h and the “time to peak plasma levels” value was 1 to 2 h.
